Measured values reported in the CheMixHub ionic liquid set.

Test: xn = mol fraction of the nth substance listed

CC1COC(=O)O1 (stereo not given) + CCCC[N+]1(C)CCCC1.O=S(=O)([N-]S(=O)(=O)C(F)(F)F)C(F)(F)F
101 kPa, x1 = 1
Details | electrical conductivity [S/m] | viscosity [mPa·s]
293.15 K | 0.002 | 2.72
303.15 K | 0.002 | 2.29
313.15 K | 0.002 | 2

O + CCCCCCCCCCCCCC[n+]1ccccc1.O=C([O-])C(O)c1ccccc1 + CC(C)C[C@H](N)C(=O)O
101 kPa, x2 = 0, x3 = 0
Details | electrical conductivity [S/m]
293.15 K | 0.00012
298.15 K | 0.00015
303.15 K | 0.00016
308.15 K | 0.00017
313.15 K | 0.00019

O=C(CO)[C@@H](O)[C@H](O)[C@@H](O)CO + CCCCCCCCCCCCCCCC[N+](C)(C)C.[Br-] + O
viscosity [mPa·s], 100 kPa
Details | 298.15 K | 308.15 K | 318.15 K
x2 = 7.19e-06, x1 = 0.002005 | 0.946 | 0.782 | 0.65
x2 = 7.19e-06, x1 = 0.002298 | 0.954 | 0.788 | 0.655
x2 = 7.19e-06, x1 = 0.002748 | 0.965 | 0.797 | 0.662
x2 = 7.2e-06, x1 = 0.0007582 | 0.915 | 0.757 | 0.629
x2 = 7.2e-06, x1 = 0.001199 | 0.926 | 0.766 | 0.637
x2 = 7.2e-06, x1 = 0.001449 | 0.932 | 0.771 | –
x2 = 1.438e-05, x1 = 0.00232 | 0.96 | 0.793 | 0.658
x2 = 1.438e-05, x1 = 0.002732 | 0.971 | 0.802 | 0.665
x2 = 1.439e-05, x1 = 0.00146 | 0.937 | – | –
x2 = 1.439e-05, x1 = 0.001979 | 0.951 | 0.786 | 0.652
x2 = 1.44e-05, x1 = 0.0008896 | 0.922 | 0.763 | 0.633
x2 = 1.44e-05, x1 = 0.001296 | 0.933 | 0.771 | 0.64
x2 = 2.156e-05, x1 = 0.002717 | 0.975 | 0.805 | 0.667
x2 = 2.157e-05, x1 = 0.002351 | 0.965 | 0.797 | 0.66
x2 = 2.158e-05, x1 = 0.001965 | 0.954 | 0.789 | 0.653
x2 = 2.159e-05, x1 = 0.001383 | 0.938 | 0.776 | 0.642
x2 = 2.159e-05, x1 = 0.001661 | 0.946 | 0.782 | 0.647
x2 = 2.16e-05, x1 = 0.001025 | 0.928 | 0.768 | 0.636

CCCCCCCCn1cc[n+](C)c1.O=S(=O)([N-]S(=O)(=O)C(F)(F)F)C(F)(F)F + CN(C)C=O
viscosity [mPa·s], 101 kPa
Details | 293.15 K | 303.15 K | 313.15 K | 323.15 K | 333.15 K | 343.15 K | 353.15 K | 363.15 K
x1 = 0.001926 | 0.959 | 0.858 | 0.771 | 0.702 | 0.641 | 0.59 | 0.543 | 0.502
x1 = 0.003917 | 0.982 | 0.876 | 0.787 | 0.715 | 0.653 | 0.598 | 0.552 | 0.51
x1 = 0.007695 | 1.019 | 0.907 | 0.818 | 0.738 | 0.672 | 0.617 | 0.568 | 0.524
x1 = 0.01197 | 1.059 | 0.942 | 0.85 | 0.762 | 0.694 | 0.635 | 0.584 | 0.539
x1 = 0.01518 | 1.096 | 0.971 | 0.877 | 0.784 | 0.713 | 0.653 | 0.598 | 0.552
x1 = 0.0193 | 1.136 | 1.006 | 0.909 | 0.81 | 0.734 | 0.669 | 0.614 | 0.579
